Source: EP0117412A1, “Propene derivatives and their use as plant growth inhibitors” (DAICEL CHEMICAL INDUSTRIES, LTD., priority 1983, dated 1984)

Legend:
Assay in all cases: Test of plant growth inhibiting action on sprouted seeds grown 7 days in a dispersion of wettable powder, visual evaluation
Assay type in all cases: in vivo
Echinochloa crus-galli = conditions: 168 h, 20% wettable powder dispersed in water, 25°C, lighted thermostat, visual grade 1-5, read-out: Growth Inhibition, Seed of Plant Echinochloa crus-galli (converted); for inhibition at 20 ppm: Concentration 20 ppm; for inhibition at 100 ppm: Concentration 100 ppm
From the text: (§1) Test Example (Test of Plant Growth Inhibiting Action)
(§2) 50 parts of talc, 25 parts of bentonite, 2 parts of Sorpol-9047 (surface active agent manufactured by Toho Chemical Co., Ltd.) and 3 parts of Sorpol-5039 (same as above) were thoroughly mixed to form a carrier. 50 weight parts of test compound was mixed with 200 weight parts of the carrier to prepare a 20% wettable powder. The wettable powder was dispersed in pure water to adjust the amount thereof to a definite concentration (see Table If to 17). Seeds of Oryza sativa or rice plant, Echinochloa crus-galli (a kind of millet) and Raphanus sativus (a kind of radish) all of which were forcedly sprouted in a separate dish, were put in the dispersion of wettable powder and grown for 7 days in a lighted thermostat at 25°C and the degree of growth was visually evaluated in accordance with the standard set forth below.
(§3) Standard of Evaluation in Growth Inhibition
(§4) • no influence: 1 • about 25% growth inhibition: 2 • about 50% growth inhibition: 3 • about 75% growth inhibition: 4 • about 100% growth inhibition: 5

Oryza sativa = conditions: 168 h, 20% wettable powder dispersed in water, 25°C, lighted thermostat, visual grade 1-5, read-out: Growth Inhibition, Seed of Plant Oryza sativa (converted); for inhibition at 20 ppm: Concentration 20 ppm; for inhibition at 100 ppm: Concentration 100 ppm
From the text: as §1, §2, §3, §4

Raphanus sativus = conditions: 168 h, 20% wettable powder dispersed in water, 25°C, lighted thermostat, visual grade 1-5, read-out: Growth Inhibition, Seed of Plant Raphanus sativus (converted); for inhibition at 20 ppm: Concentration 20 ppm; for inhibition at 100 ppm: Concentration 100 ppm
From the text: as §1, §2, §3, §4

Row | SMILES | inhibition at 20 ppm (Echinochloa crus-galli) [%] | inhibition at 100 ppm (Echinochloa crus-galli) [%] | inhibition at 20 ppm (Oryza sativa) [%] | inhibition at 100 ppm (Oryza sativa) [%] | inhibition at 20 ppm (Raphanus sativus) [%] | inhibition at 100 ppm (Raphanus sativus) [%]
1 | C=C(CSc1ccccc1)C(=O)OC [Compound 4-1, methyl 2-methylene-3-(phenylthio)propionate] | 100 | 100 | 100 | 100 | 0 | 25
2 | C=C(CSc1ccc(Cl)cc1)C(=O)OC [Compound 4-2, methyl 2-methylene-3-(4-chlorophenyl-thio)propionate] | 100 | 100 | 100 | 100 | 0 | 25
3 | C=C(CSc1ccc(C)cc1)C(=O)OC [Compound 4-3] | 100 | 100 | 75 | 100 | 0 | 0
4 | C=C(CSc1ccc(OC)cc1)C(=O)OC [Compound 4-4] | 100 | 100 | 100 | 100 | 0 | 25
5 | C=C(CSc1ccc2ccccc2c1)C(=O)OC [Compound 4-5] | 100 | 100 | 75 | 100 | 0 | 0
6 | C=C(CSCc1ccccc1)C(=O)OC [Compound 4-6] | 100 | 100 | 100 | 100 | 0 | 25
7 | C=C(CSC1CCCCC1)C(=O)OC [Compound 4-7] | 75 | 100 | 0 | 100 | 0 | 0
8 | C=C(CSc1ccccn1)C(=O)OC [Compound 4-8] | 0 | 25 | 0 | 50 | 0 | 0
9 | C=C(CSCc1ccc(Cl)cc1)C(=O)OC [Compound 4-9] | 100 | 100 | 100 | 100 | 0 | 50
10 | C=C(COc1ccccc1)C(=O)OC [Compound 4-10, methyl 2-methylene-3-phenoxypropionate] | 100 | 100 | 75 | 100 | 0 | 100
11 | C=C(COc1ccc(Cl)cc1C)C(=O)OC [Compound 4-11] | 100 | 100 | 75 | 100 | 0 | 25
12 | C=C(COc1ccc(Cl)cc1Cl)C(=O)OC [Compound 4-12] | 100 | 100 | 75 | 100 | 0 | 0
13 | C=C(COc1ccc(-c2ccccc2)cc1)C(=O)OC [Compound 4-13] | 25 | 25 | 0 | 0 | 0 | 0
14 | C=C(COc1cccc(Cl)c1)C(=O)OC [Compound 4-14] | 100 | 100 | 100 | 100 | 25 | 75
15 | C=C(COc1ccc(F)cc1)C(=O)OC [Compound 4-15, methyl 2-methylene-3-(4-fluorophenoxy)propionate] | 75 | 100 | 50 | 100 | 0 | 50
16 | C=C(COc1cccc(C)c1)C(=O)OC [Compound 4-16] | 100 | 100 | 75 | 100 | 0 | 25
17 | C=C(COc1cccc2c1CCCC2)C(=O)OC [Compound 4-17] | 100 | 100 | 75 | 100 | 0 | 0
18 | C=C(COc1ccc(C)cc1)C(=O)OC [Compound 4-18] | 100 | 100 | 75 | 100 | 25 | 100
19 | C=C(COc1ccc(SC)cc1)C(=O)OC [Compound 4-19] | 100 | 100 | 100 | 100 | 0 | 50
20 | C=C(COc1ccc(OC)cc1)C(=O)OC [Compound 4-20] | 100 | 100 | 100 | 100 | 0 | 0
21 | C=C(COc1ccc(C(F)(F)F)cc1)C(=O)OC [Compound 4-21] | 0 | 100 | 0 | 100 | 25 | 25
22 | C=C(COc1ccc(C#N)cc1)C(=O)OC [Compound 4-22] | 100 | 100 | 100 | 100 | 50 | 100
23 | C=C(COc1ccc2c(C)cc(=O)oc2c1)C(=O)OC [Compound 4-25] | 75 | 100 | 25 | 100 | 0 | 25
24 | C=C(CON(CC)CC)C(=O)OC [Compound 4-26] | 0 | 25 | 0 | 50 | 0 | 0
25 | C=C(COc1cccc2ncccc12)C(=O)OC [Compound 4-27] | 100 | 100 | 75 | 100 | 0 | 50
26 | C=C(COc1ccc(C=Cc2ccccc2)cc1)C(=O)OC [Compound 4-28] | 75 | 75 | 25 | 25 | 0 | 0
